One data set can be described thus: Thermodynamic solubility. The following applies: aqueous buffer, thermodynamic from solid, 25° C., 100 mM phosphate buffer at pH 7.4. Format: physicochemical. From the text:
An aliqout of the saturated solution was then taken and its concentration measured by liquid chromatography/tandem mass spectrometry (LC/MS/MS). LC/MS/MS experimental conditions and instrumental parameters are described in detail in the LC/MS/MS section.

The next data set in a line: Log D (shake-flask). Format: physicochemical. As to conditions: octanol/buffer. The method, then:
The determination of log D was based on the shake-flask principle. The compound(s) of the present invention was slurried in an octanol-saturated buffer solution and sonicated to promote dissolution. The solution was filtered to remove any insoluble. After an initial sample was taken, the solution volume is adjusted to 10 ml, and a known volume of buffer-saturated octanol is added. The two-phase solution is mixed, then separated by centrifugation. A second sample from the bottom layer (aqueous layer) was then taken. Both samples, which represented the solution concentrations of the compound before and after addition of octanol, were determined by LC/MS/MS. The determined concentrations were used to calculated the log D value.

For orientation: solubility means the concentration that dissolves in the medium under given conditions. Broadly, the logD is lipophilicity at a set pH, counting ionised and neutral species. A high value points to a more lipophilic compound. `CN(CCO)C(=O)c1ccc(C(=C2CCN(Cc3cscn3)CC2)c2cccc3cccnc23)cc1` [compound of the invention, N-(2-hydroxyethyl)-N-methyl-4-(quinolin-8-yl(1-(thiazol-4-ylmethyl)piperidin-4-ylidene)methyl)benzamide]: the solubility at 24 h in the data set “Thermodynamic solubility” is above 500 µM. In the data set “Log D (shake-flask)”, this compound showed a logD of 1.6.

For the origin of these results see US7977355B2, “N-(2-hydroxyethyl)-N-methyl-4-(quinolin-8-yl(1-(thiazol-4-ylmethyl)piperidin-4-ylidene)methyl” (Astrazeneca AB, priority 2006, dated 2011).
